# Results taken from ChEMBL document CHEMBL1144858, “3D-QSAR CoMFA studies on bis-coumarine analogues as urease inhibitors: a strategic design in anti-urease agents” (Bioorg Med Chem, 2008).
# Target: Urease (Canavalia ensiformis, UniProt P07374)
# Test: Inhibition of jack bean urease
# Chain of Urease (P07374 whole entry): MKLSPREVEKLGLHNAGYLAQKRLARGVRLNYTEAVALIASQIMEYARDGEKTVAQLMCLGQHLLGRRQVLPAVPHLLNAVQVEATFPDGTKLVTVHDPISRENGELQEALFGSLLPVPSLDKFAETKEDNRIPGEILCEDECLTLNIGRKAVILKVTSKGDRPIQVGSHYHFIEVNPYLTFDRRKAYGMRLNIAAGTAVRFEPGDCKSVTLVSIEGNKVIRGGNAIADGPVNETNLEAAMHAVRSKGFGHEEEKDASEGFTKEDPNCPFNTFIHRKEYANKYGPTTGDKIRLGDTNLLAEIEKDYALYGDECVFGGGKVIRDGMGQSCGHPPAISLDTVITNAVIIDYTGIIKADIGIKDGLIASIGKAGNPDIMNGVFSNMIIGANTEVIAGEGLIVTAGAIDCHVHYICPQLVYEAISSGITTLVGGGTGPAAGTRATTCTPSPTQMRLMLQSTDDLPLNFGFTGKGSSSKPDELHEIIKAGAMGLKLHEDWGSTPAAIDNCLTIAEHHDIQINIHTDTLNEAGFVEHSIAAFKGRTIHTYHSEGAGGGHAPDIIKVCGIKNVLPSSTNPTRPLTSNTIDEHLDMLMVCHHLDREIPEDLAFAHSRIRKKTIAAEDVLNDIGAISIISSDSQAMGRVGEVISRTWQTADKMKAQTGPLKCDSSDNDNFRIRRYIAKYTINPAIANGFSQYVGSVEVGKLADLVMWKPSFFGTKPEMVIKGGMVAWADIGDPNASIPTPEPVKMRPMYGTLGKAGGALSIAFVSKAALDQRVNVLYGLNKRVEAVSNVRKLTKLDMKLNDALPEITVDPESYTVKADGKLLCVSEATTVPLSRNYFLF
row,SMILES,IC50
1,COc1cc(C(c2c(O)oc3ccccc3c2=O)c2c(O)oc3ccccc3c2=O)cc(OC)c1OC,83.2 µM
2,CC(C)c1ccc(C(c2c(O)oc3ccccc3c2=O)c2c(O)oc3ccccc3c2=O)cc1,83.2 µM
3,COc1ccc(C(c2c(O)c3ccccc3oc2=O)c2c(O)c3ccccc3oc2=O)cc1,60.3 µM
4,O=c1oc2ccccc2c(O)c1C(c1c(O)c2ccccc2oc1=O)c1c[nH]c2ccccc12,61.7 µM
5,CCCCCC(c1c(O)c2ccccc2oc1=O)c1c(O)c2ccccc2oc1=O,87.1 µM
6,O=c1oc2ccccc2c(O)c1C(c1ccncc1)c1c(O)c2ccccc2oc1=O,58.9 µM
7,O=c1oc2ccccc2c(O)c1C(/C=C/c1ccccc1)c1c(O)c2ccccc2oc1=O,60.3 µM
8,O=c1oc2ccccc2c(O)c1C(c1cccnc1)c1c(O)c2ccccc2oc1=O,35.5 µM
9,O=c1oc2ccccc2c(O)c1C(c1ccccc1Cl)c1c(O)c2ccccc2oc1=O,85.1 µM
10,CC(c1ccccc1)C(c1c(O)c2ccccc2oc1=O)c1c(O)c2ccccc2oc1=O (stereo not drawn),52.5 µM
11,CCOc1cc(C(c2c(O)c3ccccc3oc2=O)c2c(O)c3ccccc3oc2=O)ccc1O,91.2 µM
12,O=c1oc2ccccc2c(O)c1C(c1ccc[nH]1)c1c(O)c2ccccc2oc1=O,46.8 µM
13,CCCCC(c1c(O)c2ccccc2oc1=O)c1c(O)c2ccccc2oc1=O,64.6 µM
14,O=c1oc2ccccc2c(O)c1C(CCc1ccccc1)c1c(O)c2ccccc2oc1=O,67.6 µM
15,O=c1c(C(c2ccc(O)cc2)c2c(O)oc3ccccc3c2=O)c(O)oc2ccccc12,74.1 µM
16,COc1cccc(C(c2c(O)c3ccccc3oc2=O)c2c(O)c3ccccc3oc2=O)c1,56.2 µM
17,COc1ccccc1C(c1c(O)c2ccccc2oc1=O)c1c(O)c2ccccc2oc1=O,83.2 µM
18,CC(c1c(O)c2ccccc2oc1=O)c1c(O)c2ccccc2oc1=O,63.1 µM
19,CCCC(c1c(O)c2ccccc2oc1=O)c1c(O)c2ccccc2oc1=O,67.6 µM
20,O=c1oc2ccccc2c(O)c1C(c1cccc(O)c1)c1c(O)c2ccccc2oc1=O,72.4 µM
21,O=c1oc2ccccc2c(O)c1C(c1cccc([N+](=O)[O-])c1)c1c(O)c2ccccc2oc1=O,81.3 µM
22,C/C=C/C(c1c(O)c2ccccc2oc1=O)c1c(O)c2ccccc2oc1=O,43.7 µM
23,O=c1oc2ccccc2c(O)c1C(c1ccccc1Br)c1c(O)c2ccccc2oc1=O,74.1 µM
24,COc1ccc(C(c2c(O)c3ccccc3oc2=O)c2c(O)c3ccccc3oc2=O)cc1OC,79.4 µM
25,O=c1oc2ccccc2c(O)c1C(c1cccc(Cl)c1)c1c(O)c2ccccc2oc1=O,74.1 µM
26,Nc1cccc(C(c2c(O)c3ccccc3oc2=O)c2c(O)c3ccccc3oc2=O)c1,75.9 µM
27,O=c1c(C(c2ccc([N+](=O)[O-])cc2)c2c(O)oc3ccccc3c2=O)c(O)oc2ccccc12,70.8 µM
28,O=c1oc2ccccc2c(O)c1Cc1c(O)c2ccccc2oc1=O [DICUMAROL],15.1 µM
